{
  "source": "patent US10662225B2",
  "about": "“Backbone cyclized inhibitory peptides of myeloid differentiation factor 88 (MyD88)” (Yissum Research Development Company of the Hebrew …, priority 2016, dated 2020)",
  "key": {"[1]": {"tested_on": "T cells responding to the self-antigen MOG35-55", "assay": "Cytokine response of draining lymph node cells of treated EAE mice to MOG35-55", "format": "in vivo", "details": "4 mg/Kg three times per week until day 11; ex vivo restimulation", "description": "FIGS. 16A and 16B. inhibition of IFNγ and IL-17 secretion in 4×4MyDI treated mice. C57BL/6 mice were immunized with MOG35-55/CFA and administered pertussis toxin on day zero and after 48 h. Groups of mice were treated with 4×4MyDI at 4 mg/kg from day zero, three times a week, and animals were sacrificed on day 11 after immunization. Control mice were treated with an equal volume of PBS using the same schedule of administration. Single cell suspensions from draining lymph nodes were stimulated with different concentrations of MOG35-55 peptide (SEQ ID NO: 4) for three days and supernatants were collected for analysis of cytokines by ELISA.\nOf note, IFNγ and IL-17 are considered pro-inflammatory cytokines that are highly detrimental in the autoimmune process."}, "MyD88 TIR domain": {"target": "T1, MyD88 TIR domain (Homo sapiens, UniProt Q99836)", "T1 construct": "made in house", "T1 sequence (Q99836 151-296)": "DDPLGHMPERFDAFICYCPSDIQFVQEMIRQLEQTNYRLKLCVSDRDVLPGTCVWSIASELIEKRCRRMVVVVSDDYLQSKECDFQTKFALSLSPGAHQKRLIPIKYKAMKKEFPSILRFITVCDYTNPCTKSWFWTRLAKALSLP", "assay": "Competition assay: binding of biotinylated linear BB loop peptide to MyD88 TIR domain", "details": "different concentrations", "description": "FIG. 9. 4×4MyDI binds to the BB loop region of the MyD88 TIR domain. A 96 well plate was coated with recombinant MyD88 (8 μg/ml) in coating buffer vs. buffer alone, and wells were blocked with 1% BSA. Biotinylated linear peptide was added to all wells (125 μg/ml) followed by streptavidin-HRP and substrate. The signal of linear peptide bound to its target was inhibited by incubation with the 4×4MyDI (*P<0.05) but not by incubation with the scrambled version of the linear peptide (SEQ ID NO: 5).\nThe ability of the 4×4MyDI compound to bind to the target region (the BB loop) of the MyD88 TIR domain, was evaluated using a newly-designed assay. For this goal a competition assay was established that tests the ability of the 4×4MyDI compound to prevent the binding of the biotinylated linear BB loop peptide to the MyD88 TIR domain. The MyD88 TIR domain was produced as a recombinant protein fused to the SUMO3 protein (Accession # NP_008867), purified, and attached to a 96 well plate. Binding of biotinylated RDVLPGT (SEQ. ID NO: 1) peptide was detected using streptavidin conjugated to horse radish peroxidase (HRP) followed by the addition of HRP substrate."}, "[2]": {"tested_on": "MyD88-dependent signaling", "assay": "Library screen: TNFα production by U937 macrophage cells stimulated with PAM3Csk", "format": "cell-based, human", "details": "PAM3Csk overnight, peptide concentration estimated 2-4 μM", "description": "FIG. 4. Screening results of the peptide library of 16 compounds. Human macrophage U937 cells were stimulated with PAM3csk overnight in the absence or presence of each of the cyclic peptides. Human TNFα levels in the supernatants were determined by ELISA. […].\nThe backbone cyclic library of 16 compounds synthesized in Example 3 was screened for inhibition of MyD88-dependent signaling through innate immune receptors employing the human macrophage cell line U937. […] The concentration of the cyclic peptides in the library was estimated to be 2-4 μM."}, "[3]": {"tested_on": "NFκB p65 nuclear translocation", "assay": "NFκB p65 nuclear translocation in HeLa cells stimulated with TNFα or IL-1β", "format": "cell-based", "description": "FIG. 6. HeLa assay showing specificity of MyD88 inhibition. HeLa cells were stimulated with recombinant TNFα or IL-1β and NFkB localization was determined with anti-p65 conjugated to rhodamine. The percent of cells with nuclear localization was determined and is shown in the bar graphs on the right. 6A: Top row, HeLa cells transduced with control shRNA. Second row, shRNA knock-down of MyD88. 6B: Top row, HeLa cells treated with MyD88 inhibitor linear peptide. Bottom row, HeLa cells treated with scrambled control version of the MyD88 inhibitor linear peptide (SEQ ID NO: 5).\nFIG. 7. HeLa assay showing specificity of MyD88 inhibition by 4×4MyDI. HeLa cells were stimulated with recombinant TNFα or IL-1b and NFkB localization was determined with anti-p65 conjugated to rhodamine. The percent of cells with nuclear localization was determined, and is shown in the bar graphs on the right. Top row, HeLa cells with no pre-treatment. Second row, HeLa cells pre-treated for 30 min with the backbone cyclic 4×4MyDI compound.\nLead compounds were further tested in vitro to confirm the specificity of the inhibition. A fluorescence-based in vitro activity assay that determines the degree of activation of the transcription factor NFκB was established. In this assay, cells are treated with either TNFα or IL-1b, both inflammatory cytokines that activate NFκB. Upon activation, the p65 unit of the NFκB transcription factor re-locates from the cytoplasm to the nucleus. Using fluorescently-tagged antibodies to p65, the cytoplasmic vs. nuclear localization of the factor is determined. Importantly, since the signaling of IL-1b, but not TNFα, is dependent on MyD88, this assay can establish the specificity of the inhibition achieved using the lead compounds.\nCells were activated with either IL-1β (the signaling of the IL-1 receptor is dependent on MyD88), or with TNFα (signaling of its receptor is independent of MyD88). The activation was measured by the translocation of NFκB from the cytoplasm to the nucleus. As a positive control, a stable MyD88 knock-down cell line was established using lentiviral encoded shRNA.\nUsing the same system, when cells were treated with the backbone cyclic peptide 4×4MyDI, activation by IL-1β was blocked, however when treated with TNFα the activation was not inhibited."}},
  "note": "Numbered stars: 1 amine (or outer) side, 2 acyl side, 3 side chain; on linkers, the order of the positions; unused ones are H or OH. Bridge positions count the residues as written; N and C are the ends. Square brackets hold non-standard residues; d marks the D form. Peptide text beside a SMILES is read from it. CO = O=C([*:1])[*:2]; Nlys = NCCCCNCC(=O)O",
  "data": [
    {"smiles": "CC(C)C[C@@H]1NC(=O)[C@H](C(C)C)NC(=O)[C@H](CC(=O)O)NC(=O)[C@H](CCCNC(=N)N)NC(=O)CN(C(=O)[C@@H](N)Cc2c[nH]c3ccccc23)CCCCNC(=O)NCCCCN(CC(=O)NCC(=O)N[C@H](C(N)=O)[C@@H](C)O)C1=O", "note": "[4×4MyDI] (H-W[Nlys]RDVL[Nlys]GT-NH2; linker 2-7 via CO; N-terminus assumed)", "values": [
      {"measurement": "IFNγ produced by T cells responding to MOG35-55", "setting": "[1]", "value": "complete inhibition"},
      {"measurement": "IL-17 produced by T cells responding to MOG35-55", "setting": "[1]", "value": "complete inhibition"},
      {"measurement": "Papp AB (apical to basolateral)", "setting": "CaCO-2 monolayer", "value": "higher than metoprolol"},
      {"measurement": "inhibition of binding of the biotinylated peptide to the MyD88 TIR domain", "setting": "MyD88 TIR domain", "value": "competitively inhibited"},
      {"measurement": "MyD88 inhibitory activity (reduction in TNFα production)", "setting": "[2]", "value": "intermediate activity"},
      {"measurement": "NFκB activation by IL-1β", "setting": "[3]; HeLa cells, IL-1β", "value": "blocked"},
      {"measurement": "Percent p65 nuclear translocation, IL-1β", "setting": "[3]; HeLa cells, IL-1β (MyD88 dependent)", "value": 27, "unit": "%"},
      {"measurement": "NFκB activation by TNFα", "setting": "[3]; HeLa cells, TNFα", "value": "not inhibited"},
      {"measurement": "Percent p65 nuclear translocation, TNFα", "setting": "[3]; HeLa cells, TNFα (MyD88 independent)", "value": 97, "unit": "%"},
      {"measurement": "Percent p65 nuclear translocation, No stimulation", "setting": "[3]; HeLa cells, no stimulation", "value": 0, "unit": "%"},
      {"measurement": "specificity of MyD88 inhibition", "setting": "[3]; IL-1β versus TNFα", "value": "specific inhibitor"}
    ]}
  ]
}
